The MIC is the lowest concentration found to suppress growth.

For 23 compounds, MIC results are on record in patent US11267826B2, “Penicillin-binding protein inhibitors” (priority 2017, dated 2022).

The subject of one experiment is S. aureus ATCC 29213. Put plainly: Broth microdilution MIC assay, S. aureus. Type of experiment: cell-based. Particulars: Staphylococcus aureus. The method, then: (§1) To determine the ability of test compounds to potentiate the inhibition of the growth of bacterial strains, classic cell based broth microdilution MIC assays were employed. MIC assays are performed according to CLSI methods except where otherwise noted (CLSI, 2011 and CLSI, 2009). The reference strain S. aureus ATCC 29213 and the hyper-permeable E. coli 901C were used to determine the ability of the PBP compounds to inhibit bacterial growth. Briefly, cryo-preserved bacterial cultures of clinical strains are streaked for isolation on appropriate agar medium, in this case Mueller Hinton II agar. Following incubation to allow formation of colonies these plates are sealed with parafilm and stored refrigerated for up to two weeks. For preparation of assay inocula and to ensure low variability, at least 5 colonies are picked from the agar plates with an inoculating loop and aseptically transferred to a culture tube containing 3 mL of Mueller-Hinton Broth (supplemented with divalent cations to required levels based on Manufacturers' certification). The broth culture is grown for 3-5 hours at 37° C. with shaking at 200 rpm. Meanwhile, 2-fold serial dilutions of test compounds are conducted in a 96 well plate with a final volume of 75 μL per well at 2-fold the final desired concentration. After the dilution plates are set up the growing cultures are then diluted in a cuvette containing MH II broth and the optical density is measured at 600 nm. Inocula are diluted such that 75 μL of this culture in Mueller-Hinton Broth results in a starting bacterial concentration of 5×10^5 CFU/mL when added to the dilution plates. The plates are incubated 16-20 hours at 37° C. The MIC is read visually as the lowest concentration well with no bacterial growth.
(Broth dilution looks for growth in wells or tubes with falling amounts of substance.)

Experiment [1] concerns hyper-permeable E. coli 901C. The experiment is described as follows: Broth microdilution MIC assay, hyper-permeable E. coli. Type of experiment: cell-based. Particulars: Escherichia coli, read-out: E. coli 901C MIC. The method, then:
as §1

Setting [2] is: ATCC29213, broth microdilution, 16-20 hours at 37° C., read-out: S. aureus 29213 MIC.

Each structure is given as a SMILES string. Read-outs that look alike come from different tables or passages of the source.

In the case of `O=C(N[C@H]1Cc2cccc(C(=O)O)c2OB1O)/C(=N\O)c1ccccc1` [Example 83, (R,Z)-2-hydroxy-3-(2-(hydroxyimino)-2-phenylacetamido)-3,4-dihydro-2H-benzo[e][1,2]oxaborinine-8-carboxylic Acid], the MIC with S. aureus ATCC 29213 (setting [2]) was below 64 µg/mL; in experiment [1] it was above 128 µg/mL.
For `Nc1nc(C(=CCCC(=O)O)C(=O)N[C@H]2Cc3cccc(C(=O)O)c3OB2O)cs1` [Example 84, (R)-3-(2-(2-aminothiazol-4-yl)-5-carboxypent-2-enamido)-2-hydroxy-3,4-dihydro-2H-benzo[e][1,2]oxaborinine-8-carboxylic Acid], in that order: above 128 µg/mL and below 64 µg/mL.
For `Nc1nc(C(=CCCO)C(=O)N[C@H]2Cc3cccc(C(=O)O)c3OB2O)cs1` [Example 85, (R)-3-(2-(2-aminothiazol-4-yl)-5-hydroxypent-2-enamido)-2-hydroxy-3,4-dihydro-2H-benzo[e][1,2]oxaborinine-8-carboxylic Acid], in that order: 64 to 128 µg/mL and 64 to 128 µg/mL.
Taken in the same sequence, the figures for `Nc1nc(/C(=C\c2cccnc2)C(=O)N[C@H]2Cc3cccc(C(=O)O)c3OB2O)cs1` [Example 86, (R,E)-3-(2-(2-aminothiazol-4-yl)-3-(pyridin-3-yl)acrylamido)-2-hydroxy-3,4-dihydro-2H-benzo[e][1,2]oxaborinine-8-carboxylic Acid] were 64 to 128 µg/mL and below 64 µg/mL.
As to `O=C(N[C@H]1Cc2cccc(C(=O)O)c2OB1O)/C(=N\O)c1cscn1` [Example 90, (R,Z)-2-hydroxy-3-(2-(hydroxyimino)-2-(thiazol-4-yl)acetamido)-3,4-dihydro-2H-benzo[e][1,2]oxaborinine-8-carboxylic Acid], the minimum inhibitory concentration (MIC) is below 64 µg/mL with S. aureus ATCC 29213 (setting [2]) and 64 to 128 µg/mL in experiment [1].
Taken in the same sequence, the figures for `O=C(N[C@H]1Cc2cccc(C(=O)O)c2OB1O)/C(=N\O)c1csc(S)n1` [Example 91, (R,Z)-2-hydroxy-3-(2-(hydroxyimino)-2-(2-mercaptothiazol-4-yl)acetamido)-3,4-dihydro-2H-benzo[e][1,2]oxaborinine-8-carboxylic Acid] were below 64 µg/mL and above 128 µg/mL.
Taken in the same sequence, the figures for `COc1ccc(CSc2nc(/C(=N/O)C(=O)N[C@H]3Cc4cccc(C(=O)O)c4OB3O)cs2)cc1` [Example 92, (R,Z)-2-hydroxy-3-(2-(hydroxyimino)-2-(2-((4-methoxybenzyl)thio)thiazol-4-yl)acetamido)-3,4-dihydro-2H-benzo[e][1,2]oxaborinine-8-carboxylic Acid] were below 64 µg/mL and above 128 µg/mL.
Taken in the same sequence, the figures for `O=C(N[C@H]1Cc2cccc(C(=O)O)c2OB1O)C(=NO)c1csc(-n2ccnc2)n1` [Example 93, (R)-3-(2-(2-(1H-imidazol-1-yl)thiazol-4-yl)-2-(hydroxyimino)acetamido)-2-hydroxy-3,4-dihydro-2H-benzo[e][1,2]oxaborinine-8-carboxylic Acid] were below 64 µg/mL and above 128 µg/mL.
As to `NCCN(CCN)c1nc(/C(=N/O)C(=O)N[C@H]2Cc3cccc(C(=O)O)c3OB2O)cs1` [Example 94, (R,Z)-3-(2-(2-(bis(2-aminoethyl)amino)thiazol-4-yl)-2-(hydroxyimino)acetamido)-2-hydroxy-3,4-dihydro-2H-benzo[e][1,2]oxaborinine-8-carboxylic Acid], the MIC is below 64 µg/mL in the experiment on S. aureus ATCC 29213 (setting [2]) and above 128 µg/mL in experiment [1].
For the compound `CC(C)O/N=C(\C(=O)N[C@H]1Cc2cccc(C(=O)O)c2OB1O)c1csc(N)n1` [Example 97, (R,Z)-3-(2-(2-aminothiazol-4-yl)-2-(isopropoxyimino)acetamido)-2-hydroxy-3,4-dihydro-2H-benzo[e][1,2]oxaborinine-8-carboxylic Acid], the results for the MIC (with S. aureus ATCC 29213 (setting [2]); in experiment [1]) were 64 to 128 µg/mL and above 128 µg/mL, respectively.
Take `CCCO/N=C(\C(=O)N[C@H]1Cc2cccc(C(=O)O)c2OB1O)c1csc(N)n1` [Example 98, (R,Z)-3-(2-(2-aminothiazol-4-yl)-2-(propoxyimino)acetamido)-2-hydroxy-3,4-dihydro-2H-benzo[e][1,2]oxaborinine-8-carboxylic Acid]: the MIC (in the experiment on S. aureus ATCC 29213 (setting [2]); in experiment [1]) was below 64 µg/mL throughout.
Take `CC(C)CO/N=C(\C(=O)N[C@H]1Cc2cccc(C(=O)O)c2OB1O)c1csc(N)n1` [Example 100, (R,Z)-3-(2-(2-aminothiazol-4-yl)-2-(isobutoxyimino)acetamido)-2-hydroxy-3,4-dihydro-2H-benzo[e][1,2]oxaborinine-8-carboxylic Acid]: the MIC (with S. aureus ATCC 29213 (setting [2]); in experiment [1]) was below 64 µg/mL throughout.
Consider `O=C(N[C@H]1Cc2cccc(C(=O)O)c2OB1O)/C(=N\O)c1csc(NCCF)n1` [Example 101, (R,Z)-3-(2-(2-((2-fluoroethyl)amino)thiazol-4-yl)-2-(hydroxyimino)acetamido)-2-hydroxy-3,4-dihydro-2H-benzo[e][1,2]oxaborinine-8-carboxylic Acid], for which the results for the minimum inhibitory concentration (MIC) (with S. aureus ATCC 29213 (setting [2]); in experiment [1]) were above 128 µg/mL and 64 to 128 µg/mL, respectively.
Taken in the same sequence, the figures for `O=C(N[C@H]1Cc2cccc(C(=O)O)c2OB1O)/C(=N\O)c1csc(NCCO)n1` [Example 102, (R,Z)-2-hydroxy-3-(2-(2-((2-hydroxyethyl)amino)thiazol-4-yl)-2-(hydroxyimino)acetamido)-3,4-dihydro-2H-benzo[e][1,2]oxaborinine-8-carboxylic Acid] were above 128 µg/mL and above 128 µg/mL.
Taken in the same sequence, the figures for `O=C(N[C@H]1Cc2cccc(C(=O)O)c2OB1O)/C(=N/O)c1nnn[nH]1` [Example 103, (R,E)-2-hydroxy-3-(2-(hydroxyimino)-2-(1H-tetrazol-5-yl)acetamido)-3,4-dihydro-2H-benzo[e][1,2]oxaborinine-8-carboxylic Acid] were above 128 µg/mL and above 128 µg/mL.
For `CC(O/N=C(\C(=O)N[C@H]1Cc2cccc(C(=O)O)c2OB1O)c1csc(N)n1)C(=O)NCCNCCN` (stereo partly drawn) [Example 104, (3R)-3-((Z)-12-amino-2-(2-aminothiazol-4-yl)-5-methyl-6-oxo-4-oxa-3,7,10-triazadodec-2-enamido)-2-hydroxy-3,4-dihydro-2H-benzo[e][1,2]oxaborinine-8-carboxylic Acid], the MIC in the experiment on S. aureus ATCC 29213 (ATCC29213, read-out: S. aureus 29213 MIC) was above 128 µg/mL; in experiment [1], below 64 µg/mL.
Take `NCCO/N=C(\C(=O)N[C@H]1Cc2cccc(C(=O)O)c2OB1O)c1csc(N)n1` [Example 105, (R,Z)-3-(2-((2-aminoethoxy)imino)-2-(2-aminothiazol-4-yl)acetamido)-2-hydroxy-3,4-dihydro-2H-benzo[e][1,2]oxaborinine-8-carboxylic Acid]: the MIC in the experiment on S. aureus ATCC 29213 (setting [2]) is above 128 µg/mL; in experiment [1], below 64 µg/mL.
As to `CNc1nc(/C(=N/O)C(=O)N[C@H]2Cc3cccc(C(=O)O)c3OB2O)cs1` [Example 106, (R,Z)-2-hydroxy-3-(2-(hydroxyimino)-2-(2-(methylamino)thiazol-4-yl)acetamido)-3,4-dihydro-2H-benzo[e][1,2]oxaborinine-8-carboxylic Acid], the minimal inhibitory concentration (MIC) (in the experiment on S. aureus ATCC 29213 (setting [2]); in experiment [1]) was above 128 µg/mL throughout.
`CCNc1nc(/C(=N/O)C(=O)N[C@H]2Cc3cccc(C(=O)O)c3OB2O)cs1` [Example 107, (R,Z)-3-(2-(2-(ethylamino)thiazol-4-yl)-2-(hydroxyimino)acetamido)-2-hydroxy-3,4-dihydro-2H-benzo[e][1,2]oxaborinine-8-carboxylic Acid]: the MIC (with S. aureus ATCC 29213 (setting [2]); in experiment [1]) was above 128 µg/mL in each case.
On to `O=C(O)CNc1nc(/C(=N/O)C(=O)N[C@H]2Cc3cccc(C(=O)O)c3OB2O)cs1` [Example 108, (R,Z)-3-(2-(2-((carboxymethyl)amino)thiazol-4-yl)-2-(hydroxyimino)acetamido)-2-hydroxy-3,4-dihydro-2H-benzo[e][1,2]oxaborinine-8-carboxylic Acid], for which the minimal inhibitory concentration (MIC) (in the experiment on S. aureus ATCC 29213 (setting [2]); in experiment [1]) was above 128 µg/mL in each case.
For the compound `NC(=O)CNc1nc(/C(=N/O)C(=O)N[C@H]2Cc3cccc(C(=O)O)c3OB2O)cs1` [Example 109, (R,Z)-3-(2-(2-((2-amino-2-oxoethyl)amino)thiazol-4-yl)-2-(hydroxyimino)acetamido)-2-hydroxy-3,4-dihydro-2H-benzo[e][1,2]oxaborinine-8-carboxylic Acid], the minimum inhibitory concentration (MIC) (with S. aureus ATCC 29213 (setting [2]); in experiment [1]) was above 128 µg/mL in each case.
On to `NCCON=C(C(=O)N[C@H]1Cc2cccc(C(=O)O)c2OB1O)c1nnn[nH]1` [Example 110, (R)-3-(2-((2-aminoethoxy)imino)-2-(1H-tetrazol-5-yl)acetamido)-2-hydroxy-3,4-dihydro-2H-benzo[e][1,2]oxaborinine-8-carboxylic Acid], for which the minimum inhibitory concentration (MIC) (with S. aureus ATCC 29213 (setting [2]); in experiment [1]) was above 128 µg/mL in each case.
Take `NCCn1nnc(C(=NO)C(=O)N[C@H]2Cc3cccc(C(=O)O)c3OB2O)n1` [Example 111, (R)-3-(2-(2-(2-aminoethyl)-2H-tetrazol-5-yl)-2-(hydroxyimino)acetamido)-2-hydroxy-3,4-dihydro-2H-benzo[e][1,2]oxaborinine-8-carboxylic Acid]: the minimal inhibitory concentration (MIC) (in the experiment on S. aureus ATCC 29213 (setting [2]); in experiment [1]) was above 128 µg/mL each time.
